Results on eight compounds are retold here after BindingDB's records for doi:10.1016/j.bioorg.2016.07.008 (Universiti Teknologi Mara, 2016).

The target in the assay is T1, Beta-glucuronidase (Homo sapiens, UniProt P08236).
T1 sequence (P08236 whole entry): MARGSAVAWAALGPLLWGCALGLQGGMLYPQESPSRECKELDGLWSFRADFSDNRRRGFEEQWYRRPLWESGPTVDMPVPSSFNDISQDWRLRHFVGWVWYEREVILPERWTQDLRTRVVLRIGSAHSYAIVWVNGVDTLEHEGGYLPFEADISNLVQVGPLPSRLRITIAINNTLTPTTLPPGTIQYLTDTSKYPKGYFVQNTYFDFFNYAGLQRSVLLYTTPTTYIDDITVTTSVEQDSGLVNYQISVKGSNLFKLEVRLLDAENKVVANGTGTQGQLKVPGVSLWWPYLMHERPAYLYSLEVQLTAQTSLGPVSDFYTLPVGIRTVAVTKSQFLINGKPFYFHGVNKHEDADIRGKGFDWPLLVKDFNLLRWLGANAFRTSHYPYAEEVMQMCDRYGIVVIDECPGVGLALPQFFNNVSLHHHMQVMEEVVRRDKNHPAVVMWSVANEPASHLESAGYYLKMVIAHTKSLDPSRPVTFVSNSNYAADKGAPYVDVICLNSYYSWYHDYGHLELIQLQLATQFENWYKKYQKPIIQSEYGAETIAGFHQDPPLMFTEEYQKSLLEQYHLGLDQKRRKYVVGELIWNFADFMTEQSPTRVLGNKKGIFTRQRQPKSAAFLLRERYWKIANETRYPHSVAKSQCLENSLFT
Put plainly: β-Glucuronidase Bioassay.
Procedure: The total reaction volume was 250 µL. The reaction mixture contained 185 µL of 0.1 M acetate buffer, 5 µL of test compound solution, 10 µL of enzyme solution was incubated at 37 °C for 30 min. […] All assays were run in triplicate.
As for `O=C(NNC(=S)Nc1cccc(Br)c1)c1ccc(C(c2c[nH]c3ccccc23)c2c[nH]c3ccccc23)cc1` [N-(3-Bromophenyl)-2-(4-(di(1H-indol-3-yl)methyl)benzoyl)hydrazinecarbothioamide (13)], the IC50 – broadly, the concentration needed to halve the response being measured – stood at 21.4 µM.
The figure for `COc1cccc(NC(=S)NNC(=O)c2ccc(C(c3c[nH]c4ccccc34)c3c[nH]c4ccccc34)cc2)c1` [2-(4-(Di(1H-indol-3-yl)methyl)benzoyl)-N-(3-methoxyphenyl)hydrazinecarbothioamide (15)] is 28.1 µM; for `Cc1cccc(NC(=S)NNC(=O)c2ccc(C(c3c[nH]c4ccccc34)c3c[nH]c4ccccc34)cc2)c1` [2-(4-(Di(1H-indol-3-yl)methyl)benzoyl)-N-(m-tolyl)hydrazinecarbothioamide (11)] it is 14.7 µM.
`O=C(NNC(=S)Nc1ccc(Br)cc1)c1ccc(C(c2c[nH]c3ccccc23)c2c[nH]c3ccccc23)cc1` [N-(4-Bromophenyl)-2-(4-(di(1H-indol-3-yl)methyl)benzoyl)hydrazinecarbothioamide (7)] yielded an IC50 of 33.2 µM.
Next, `COc1ccccc1NC(=S)NNC(=O)c1ccc(C(c2c[nH]c3ccccc23)c2c[nH]c3ccccc23)cc1` [2-(4-(Di(1H-indol-3-yl)methyl)benzoyl)-N-(2-methoxyphenyl)hydrazinecarbothioamide (18)]: 9.4 µM; `COc1ccc(NC(=S)NNC(=O)c2ccc(C(c3c[nH]c4ccccc34)c3c[nH]c4ccccc34)cc2)cc1` [2-(4-(Di(1H-indol-3-yl)methyl)benzoyl)-N-(4-methoxyphenyl)hydrazinecarbothioamide (9)]: 11.6 µM.
Regarding `Cc1ccc(NC(=S)NNC(=O)c2ccc(C(c3c[nH]c4ccccc34)c3c[nH]c4ccccc34)cc2)cc1` [2-(4-(Di(1H-indol-3-yl)methyl)benzoyl)-N-(p-tolyl)hydrazinecarbothioamide (5)], it took 15 µM to reach half-maximal inhibition (IC50).
Consider `O=C(NNC(=S)Nc1ccc([N+](=O)[O-])cc1)c1ccc(C(c2c[nH]c3ccccc23)c2c[nH]c3ccccc23)cc1` [2-(4-(Di(1H-indol-3-yl)methyl)benzoyl)-N-(4-nitrophenyl)hydrazinecarbothioamide (10)], for which the IC50 worked out at 12 µM.
